Results published in ChEMBL document CHEMBL2073903, “The expression of P-glycoprotein does influence the distribution of novel fluorescent compounds in solid tumour models” (Br J Cancer, 2003).

Target: ATP-dependent translocase ABCB1 (Homo sapiens, UniProt P08183)
Assay: TP_TRANSPORTER: ATPase assay in reconstituted P-gp
Type: functional

ATP-dependent translocase ABCB1, sequence (P08183 whole entry): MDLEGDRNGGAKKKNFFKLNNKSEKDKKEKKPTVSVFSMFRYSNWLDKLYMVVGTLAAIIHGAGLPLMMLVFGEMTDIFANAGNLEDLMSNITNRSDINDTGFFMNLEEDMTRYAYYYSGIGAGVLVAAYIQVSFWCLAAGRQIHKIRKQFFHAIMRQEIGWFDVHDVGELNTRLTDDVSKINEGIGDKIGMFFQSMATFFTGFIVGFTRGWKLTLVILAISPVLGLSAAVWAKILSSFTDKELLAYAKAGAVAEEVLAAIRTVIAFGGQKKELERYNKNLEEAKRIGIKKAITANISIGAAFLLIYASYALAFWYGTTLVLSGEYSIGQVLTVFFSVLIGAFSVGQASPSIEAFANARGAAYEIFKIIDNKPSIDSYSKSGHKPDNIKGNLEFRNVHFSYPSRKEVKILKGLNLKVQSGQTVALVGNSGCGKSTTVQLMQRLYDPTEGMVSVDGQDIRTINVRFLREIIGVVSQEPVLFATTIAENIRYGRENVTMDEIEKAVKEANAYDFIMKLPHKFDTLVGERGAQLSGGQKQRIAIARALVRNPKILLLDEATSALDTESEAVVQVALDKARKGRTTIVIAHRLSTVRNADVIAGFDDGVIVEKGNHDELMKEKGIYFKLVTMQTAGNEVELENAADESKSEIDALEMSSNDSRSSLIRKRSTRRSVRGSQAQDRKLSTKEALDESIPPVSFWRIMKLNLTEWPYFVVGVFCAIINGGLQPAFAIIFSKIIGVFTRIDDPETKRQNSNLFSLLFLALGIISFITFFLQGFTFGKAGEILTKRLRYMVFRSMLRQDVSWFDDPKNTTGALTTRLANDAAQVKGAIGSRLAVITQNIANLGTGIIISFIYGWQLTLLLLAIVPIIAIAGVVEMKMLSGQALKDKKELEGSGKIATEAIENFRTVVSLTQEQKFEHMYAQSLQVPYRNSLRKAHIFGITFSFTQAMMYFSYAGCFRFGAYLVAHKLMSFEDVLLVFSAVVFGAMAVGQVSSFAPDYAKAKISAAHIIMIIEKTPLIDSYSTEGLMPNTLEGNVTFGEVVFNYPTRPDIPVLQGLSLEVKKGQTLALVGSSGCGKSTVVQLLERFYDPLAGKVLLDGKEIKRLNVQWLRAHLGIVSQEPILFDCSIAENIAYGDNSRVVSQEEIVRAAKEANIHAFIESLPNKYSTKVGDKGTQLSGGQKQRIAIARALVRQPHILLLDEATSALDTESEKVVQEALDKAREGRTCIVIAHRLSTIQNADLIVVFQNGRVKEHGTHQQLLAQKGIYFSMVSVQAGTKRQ

CC(=O)O[C@H]1C(=O)[C@@]2(C)C([C@H](OC(=O)c3ccccc3)[C@]3(O)C[C@H](OC(=O)[C@H](O)[C@@H](NC(=O)CCC4=[N+]5C(=Cc6c(C)cc(C)n6[B-]5(F)F)C=C4)c4ccccc4)C(C)=C1C3(C)C)[C@]1(OC(C)=O)CO[C@@H]1C[C@@H]2O (stereo partly specified)
Activity: substrate [+]
